{
  "source": "ChEMBL document CHEMBL1136161",
  "about": "“Novel, potent phenethylamide inhibitors of the hepatitis C virus (HCV) NS3 protease: probing the role of P2 aryloxyprolines with hybrid structures” (Bioorg Med Chem Lett, 2003)",
  "note": "Several values for one entry are separate records, joined by “and”; a condition that tells them apart may be missing. Equal entries are not always repeated.",
  "data": [
    {"target": "T1, NS3 (Hepatitis C virus, UniProt A3EZJ3)", "T1 sequence (A3EZJ3 whole entry)": "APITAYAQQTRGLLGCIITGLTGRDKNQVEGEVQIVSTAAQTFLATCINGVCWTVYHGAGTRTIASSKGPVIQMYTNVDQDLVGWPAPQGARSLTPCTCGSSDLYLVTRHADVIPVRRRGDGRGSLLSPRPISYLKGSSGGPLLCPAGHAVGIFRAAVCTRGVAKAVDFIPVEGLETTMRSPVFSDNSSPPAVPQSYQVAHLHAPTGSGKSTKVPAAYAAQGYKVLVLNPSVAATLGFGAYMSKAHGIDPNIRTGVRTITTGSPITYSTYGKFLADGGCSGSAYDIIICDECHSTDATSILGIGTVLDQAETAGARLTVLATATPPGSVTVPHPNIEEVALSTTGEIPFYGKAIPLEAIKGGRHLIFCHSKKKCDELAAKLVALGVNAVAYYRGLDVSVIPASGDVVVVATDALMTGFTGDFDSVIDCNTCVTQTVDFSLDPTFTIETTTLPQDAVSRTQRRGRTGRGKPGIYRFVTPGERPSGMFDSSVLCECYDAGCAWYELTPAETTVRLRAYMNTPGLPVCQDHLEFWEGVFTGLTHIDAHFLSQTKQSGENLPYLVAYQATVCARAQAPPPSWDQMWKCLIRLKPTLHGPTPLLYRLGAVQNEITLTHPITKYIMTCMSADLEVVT", "assay": "Inhibitory concentration against hepatitis C virus (HCV) NS3 protease; call rule not given here", "design": "species or system Hepacivirus hominis", "values": [
      {"smiles": "COc1ccc2c(O[C@@H]3C[C@@H](C(=O)NC(CC(F)F)C(=O)NCCc4c(F)cc(C(=O)O)cc4F)N(C(=O)[C@@H](NC(=O)OC(C)(C)C)C(C)(C)C)C3)cc(-c3ccccc3)nc2c1", "note": "(stereo not given in full)", "IC50": "54 nM"},
      {"smiles": "COc1ccc2c(O[C@@H]3C[C@@H](C(=O)NC(CC(F)F)C(=O)NCCc4ccc(C(=O)O)cc4)N(C(=O)[C@@H](O)C(C)C)C3)cc(-c3ccccc3)nc2c1", "note": "(stereo not given in full)", "IC50": "11000 nM"},
      {"smiles": "COc1ccc2c(O[C@@H]3C[C@@H](C(=O)NC(CC(F)F)C(=O)NCCc4c(F)cc(C(=O)O)cc4F)N(C(C)=O)C3)cc(-c3ccccc3)nc2c1", "note": "(stereo not given in full)", "IC50": "38000 nM"},
      {"smiles": "C=CC1C[C@]1(NC(=O)C1C[C@@H](Oc2ccnc3ccccc23)CN1C(=O)[C@@H](NC(=O)OC(C)(C)C)C(C)(C)C)C(=O)O", "note": "(stereo not given in full)", "IC50": "330 nM and < 500 nM"},
      {"smiles": "COc1ccc2c(O[C@@H]3C[C@@H](C(=O)NC(CC(F)F)C(=O)NCCc4ccc(C(=O)O)cc4)N(C(=O)[C@@H](NC(=O)OCC(C)C)C(C)C)C3)cc(-c3ccccc3)nc2c1", "note": "(stereo not given in full)", "IC50": "400 nM"},
      {"smiles": "C=CC1C[C@]1(NC(=O)C1C[C@@H](Oc2cc(-c3ccccc3)nc3cc(OC)ccc23)CN1C(=O)[C@@H](NC(=O)OC(C)(C)C)C(C)(C)C)C(=O)O", "note": "(stereo not given in full)", "IC50": "25 nM"},
      {"smiles": "COc1ccc2c(O[C@@H]3CC(C(=O)NC(CC(F)F)C(=O)O)N(C(=O)[C@@H](NC(=O)OC(C)(C)C)C(C)(C)C)C3)cc(-c3ccccc3)nc2c1", "note": "(stereo not given in full)", "IC50": "180 nM"}
    ]},
    {"target": "T1, NS3", "assay": "Inhibitory concentration against hepatitis C virus (HCV) NS3 protease; Not active", "design": "species or system Hepacivirus hominis", "values": [
      {"smiles": "C=CC1CC1(NC(=O)C1C[C@@H](Oc2ccnc3ccccc23)CN1C(=O)[C@@H](NC(=O)OC(C)(C)C)C(C)(C)C)C(=O)NCCc1ccc(C(=O)O)cc1", "note": "(stereo not given in full)", "IC50": "Not Active"},
      {"smiles": "C=CC1C[C@@]1(NC(=O)C1C[C@@H](Oc2ccnc3ccccc23)CN1C(=O)[C@@H](NC(=O)OC(C)(C)C)C(C)(C)C)C(=O)O", "note": "(stereo not given in full)", "IC50": "Not Active"}
    ]},
    {"target": "T1, NS3", "assay": "Inhibitory concentration against hepatitis C virus (HCV) NS3 protease; Not active at >> 100 uM", "design": "species or system Hepacivirus hominis", "values": [
      {"smiles": "COc1ccc2c(O[C@@H]3C[C@@H](C(=O)NC(CC(F)F)C(=O)NCCc4ccc(C(=O)O)cc4)N(C(=O)C(C)(C)C)C3)cc(-c3ccccc3)nc2c1", "note": "(stereo not given in full)", "IC50": "Not Active"}
    ]}
  ]
}
